These results are taken from patent publication US5604233A, “Lactone stable formulation of 7-ethyl camptothecin and methods for uses thereof” (priority 1994, dated 1997).

Read-outs that look alike come from different tables or passages of the source.

Series [1] can be described thus: Pharmacokinetics of CPT-11 and HECPT, 5-day continuous infusion of CPT-11 (Ohe et al.). The class given is in vivo, human. The following applies: e.g., above 30 mg/m^2/d. The text has this: Initially, patients may be treated in a dose escalation protocol to determine the maximal tolerated dose of the ECPT formulation. […] For the purpose of this invention, "AUC" is defined as "area under the curve" and "CpMax" is defined as "the maximum plasma concentrate at the end of I.V.

Series [2] can be described thus: Fractional amounts of lactone species of CPT-11 and HECPT (Rothenburg et al.). Format: in vivo, human. The following applies: Table 4. The text has this:
Fractional Amounts of Lactone Species of CPT-11 and HECPT as
Function of Increasing Single Dose LV. From Rothenburg et al.

The conditions of series [3]: cited from earlier work.
The subject of series [4] is topoisomerase I. The conditions noted are these: P388 cells; cited from earlier work.
The test system of another series is MOLT3 cells. The following applies: cited from earlier work.
The next series relates to P388 tumor. The conditions noted are these: intermittent bolus days 1, 5, 9, i.p.; cited from earlier work.
A further series deals with L1210 leukemia. The conditions noted are these: 10-100 mg/kg intraperitoneally; cited from earlier work.
The subject of series [5] is Topoisomerase I purified from human colon carcinoma cells or calf thymus. The conditions noted are these: cited from earlier work.
For series [6] the following is noted: after CPT-11 versus HECPT administration; cited from earlier work.
Another series has as its system DNA single-strand breaks. The following applies: cells exposed to HECPT; cited from earlier work.
In series [7] the test system is topoisomerase I. The following applies: cited from earlier work.
The conditions of series [8]: cited from earlier work. The source holds these as a separate data set.
The conditions of series [9]: Phase I, early 1970's; cited from earlier work.
For a further series, the system named is topoisomerase II. The following applies: cited from earlier work.
The test system of another series is L1210 cells. The conditions noted are these: cited from earlier work.
The conditions of series [10]: cited from earlier work. The source holds these as a separate data set.
The conditions of series [11]: pH levels below 7.0; cited from earlier work.

As to `CCc1c2c(nc3ccc(O)cc13)-c1cc3c(c(=O)n1C2)COC(=O)[C@]3(O)CC` [HECPT, 10-hydroxy 7-ethyl camptothecin], the “CpMax of HECPT with increases in dose of CPT-11” value in series [1] was “decrease”. Also, the “overall fractional concentration of the lactone species through a range of doses” value in [2] is “fairly constant”. Further, the AUC (as a rule, concentration integrated over time) is 195.5 ng·h/mL in series [3] (CPT-11 50 mg/m^2/wkx4); 214.8 ng·h/mL in [3] (CPT-11 100 mg/m^2/wkx4); 123.2 ng·h/mL in [3] (CPT-11 150 mg/m^2/wk X4); 232.8 ng·h/mL in series [3] (CPT-11 180 mg/m^2/wk X4); 62.2 ng·h/mL in series [3] (first Rothenberg line, no dose given); 1080 ng·h/mL in series [8] (CPT-11 25 mg/m^2/dx5). Further, the AUC in series [8] (CPT-11 30 mg/m^2/dx5) is 960 ng·h/mL; in series [8] (CPT-11 35 mg/m^2/dx5), 910 ng·h/mL; in series [8] (CPT-11 40 mg/m^2/dx5), 860 ng·h/mL. Also, the CpMax in series [3] (CPT-11 50 mg/m^2/wkx4) was 0.0393 µg/mL; in series [3] (CPT-11 100 mg/m^2/wkx4) it was 0.0316 µg/mL; in series [3] (CPT-11 150 mg/m^2/wk X4), 0.0367 µg/mL; in series [3] (CPT-11 180 mg/m^2/wk X4) it was 0.0262 µg/mL; in series [8] (CPT-11 25 mg/m^2/dx5) it was 0.0104 µg/mL; in series [8] (CPT-11 35 mg/m^2/dx5) it was 0.0068 µg/mL. Also, the CpMax in series [8] (CPT-11 40 mg/m^2/dx5) was 0.0080 µg/mL. Moreover, in the series on topoisomerase I [4], the “inhibitory activity against topoisomerase I relative to CPT-11” value was 3600 fold. The “potency in generating single-strand DNA breaks relative to CPT-11” value in the series with MOLT3 cells is reported as “approximately 1000 fold”. Also, the “anti-tumor activity compared to CPT-11 in vivo” value in the series with P388 tumor was “little anti-tumor activity”. Also, the “results relative to CPT-11 under the same conditions” value in the series on L1210 leukemia is “inferior”. In addition, the “inhibition of purified topoisomerase I” value in series [5] is recorded as “inhibited”. Also, the “plasma concentration of HECPT in mice” value in series [6] is reported as “maintained longer after CPT-11 administration than after treatment with HECPT”. Moreover, in the series with DNA single-strand breaks, the “greatest quantitative biochemical effect” value is reported as “DNA single-strand breaks that occur during the S-phase”. Also, in the series with topoisomerase I [7], the “reversibility of cleavable complex stabilization” value is reported as “readily reversible”. Moreover, the “toxicity of HECPT relative to CPT-11 (suggested)” value in series [8] (Ohe et al.) is listed as “more toxic moiety”. For the same compound, the “correlation between HECPT pharmacokinetics and dose or CPT-11 pharmacokinetics and toxicity” value in series [8] (human subjects) was “lack of correlation”.
As to `CC[C@@]1(O)C(=O)OCc2c1cc1n(c2=O)Cc2cc3ccccc3nc2-1` [camptothecin], in the series with L1210 leukemia, the “T/C (treated/control) ratios relative to ECPT and HECPT” value is on record as “superior”; the “results relative to CPT-11 under the same conditions” value was “inferior”. Besides, in series [9], the “antitumor activity in Phase I trials” value is “antitumor activity”; the “toxicity in Phase I trials” value was “unpredictable myelosuppression and hemorrhagic cystitis”. The “effect on topoisomerase II” value in the series with topoisomerase II is listed as “no effect”. The “inhibition of purified topoisomerase I” value in series [5] is “inhibited”. Also, the protein-free breaks entry with L1210 cells is “increase in unexplained protein-free breaks”. In addition, in series [10], the solubility in water result is listed as “poorly soluble in water”. In addition, the form predominating result in series [11] is “closed form”. For the same compound, the “reversibility of cleavable complex stabilization” value with topoisomerase I [7] is “readily reversible”.
